{"source": "patent US11932595B2", "about": "“VDR-silent vitamin D derivative as inhibitors of SREBP and pharmaceutical use thereof” (KYOTO UNIVERSITY, priority 2020, dated 2024)", "origin": "cited, not measured here", "tested_on": "SREBP-responsive genes", "conditions": "low μM dose, cultured cells; cited from earlier work", "data": [{"compound": "C=C1CC[C@H](O)C/C1=C/C=C1\\CCC[C@]2(C)[C@@H]([C@H](C)CCCC(C)(C)O)CC[C@@H]12", "note": "[25(OH)D3, 25-hydroxyvitamin D3, reference compound]", "values": [{"measurement": "cellular lipogenesis", "result": "inhibits cellular lipogenesis"}]}]}
